Data: patent US20210393791A1, “COMBINATION TREATMENT WITH ANTI-CD123 ANTIBODY DRUG CONJUGATE AND PARP INHIBITOR” (Health Research, Inc., priority 2018, published 2021)
pIC50: −log10 of the molar value.

What was measured:
[1] = test system: primary CD123+ AML cells from patients with relapsed/refractory disease; assay: Short-term culture of primary relapsed/refractory AML patient samples; type: cell-based, human; details: single agent, in vitro
Experimental: (§1) CD123 expression on human AML cell lines (HEL, HL60, MV411, Molm13, EOL-1, THP-1, and Kasumi-1) was quantified by flow cytometry using QuantriBrite beads. AML cells were continuously cultured for 72-96 hours with varying doses of IMGN632 (range 100 pM-100 nM) and specific PARP inhibitors (range 100 pM-15 μM) alone and in combination. Cell viability was measured using a WST-8 colorimetric assay. Primary clinically annotated CD123+AML cells from patients with relapsed/refractory disease were obtained under IRB-approved protocols from the Roswell Park (Buffalo, N.Y.) Hematologic Procurement Shared Resource and cultured short-term in the presence of multiple cytokines plus IMGN632+/−PARP inhibitors. Apoptosis (Annexin V/PI), cell cycle, and DNA damage (H2AX) were evaluated by flow cytometry. Additive vs. synergistic effects were determined by combination indices using Compusyn software. PARP trapping was evaluated by Western blot analysis in nuclear lysates obtained from IMGN632+/−PARP inhibitors treated AML cells.

preclinical AML models = details: Portwood S et al, ASH 2016; cited from earlier work
human AML cell lines = assay: AML cell line viability, WST-8 colorimetric assay; type: cell-based; details: 120 h, continuous single agent 5-day treatment, read-out: IC50, in vitro inhibition of AML cell line growth
Experimental: as §1, with “AML cells were continuously cultured for 72-96 hours with varying doses of IMGN632 (range 100 pM-100 nM) and specific PARP inhibitors (range 100 pM-15 μM) alone and in combination.” left out

| Molecule | activity against primary relapsed/refractory AML patient samples [1] | effect on activity of the CD33-targeted ADC IMGN779 (preclinical AML models) | pIC50 (human AML cell lines) |
| --- | --- | --- | --- |
| O=C(c1cc(Cc2n[nH]c(=O)c3ccccc23)ccc1F)N1CCN(C(=O)C2CC2)CC1 [olaparib] | single agent activity | synergistically enhance |  |
| C[C@]1(c2nc3c(C(N)=O)cccc3[nH]2)CCCN1 [veliparib] |  |  | 4.11 |
| IMGN632 | single agent activity |  |  |
| Cn1ncnc1[C@H]1c2n[nH]c(=O)c3cc(F)cc(c23)N[C@@H]1c1ccc(F)cc1 [talazoparib] | single agent activity |  | 6.44 |
